Test results published in patent US12617814B2, “Neuroactive steroids and methods of use thereof” (Sage Therapeutics, LLC, priority 2013, dated 2026).

What was measured:
[1] = biological target: T1, NMDA receptor (GRIN1/GRIN2A subunits) (Homo sapiens, UniProt Q05586+Q12879); assay: NMDA potentiation, whole-cell patch clamp of HEK cells expressing NMDA receptor; type: cell-based; details: for activation at 0.1 µM: HEK293, 0.1 uM compound, read-out: NMDA 1a2A (%) Potentiation 0.1 uM; for activation at 0.1 µM / activation at 1 µM / NMDA 1a2A (%) Potentiation 0.1 uM / NMDA 1a2A (%) Potentiation 1 uM: HEK cells, 30 μM NMDA and 5.0 μM Glycine; for activation at 1 µM: HEK293, 1 uM compound, read-out: NMDA 1a2A (%) Potentiation 1 uM; for NMDA 1a2A (%) Potentiation 0.1 uM: 0.1 uM compound; for NMDA 1a2A (%) Potentiation 1 uM: 1 uM compound
T1 construct: expressed in transfected cells
T1 sequence (Q12879 23-1464, other chains not shown): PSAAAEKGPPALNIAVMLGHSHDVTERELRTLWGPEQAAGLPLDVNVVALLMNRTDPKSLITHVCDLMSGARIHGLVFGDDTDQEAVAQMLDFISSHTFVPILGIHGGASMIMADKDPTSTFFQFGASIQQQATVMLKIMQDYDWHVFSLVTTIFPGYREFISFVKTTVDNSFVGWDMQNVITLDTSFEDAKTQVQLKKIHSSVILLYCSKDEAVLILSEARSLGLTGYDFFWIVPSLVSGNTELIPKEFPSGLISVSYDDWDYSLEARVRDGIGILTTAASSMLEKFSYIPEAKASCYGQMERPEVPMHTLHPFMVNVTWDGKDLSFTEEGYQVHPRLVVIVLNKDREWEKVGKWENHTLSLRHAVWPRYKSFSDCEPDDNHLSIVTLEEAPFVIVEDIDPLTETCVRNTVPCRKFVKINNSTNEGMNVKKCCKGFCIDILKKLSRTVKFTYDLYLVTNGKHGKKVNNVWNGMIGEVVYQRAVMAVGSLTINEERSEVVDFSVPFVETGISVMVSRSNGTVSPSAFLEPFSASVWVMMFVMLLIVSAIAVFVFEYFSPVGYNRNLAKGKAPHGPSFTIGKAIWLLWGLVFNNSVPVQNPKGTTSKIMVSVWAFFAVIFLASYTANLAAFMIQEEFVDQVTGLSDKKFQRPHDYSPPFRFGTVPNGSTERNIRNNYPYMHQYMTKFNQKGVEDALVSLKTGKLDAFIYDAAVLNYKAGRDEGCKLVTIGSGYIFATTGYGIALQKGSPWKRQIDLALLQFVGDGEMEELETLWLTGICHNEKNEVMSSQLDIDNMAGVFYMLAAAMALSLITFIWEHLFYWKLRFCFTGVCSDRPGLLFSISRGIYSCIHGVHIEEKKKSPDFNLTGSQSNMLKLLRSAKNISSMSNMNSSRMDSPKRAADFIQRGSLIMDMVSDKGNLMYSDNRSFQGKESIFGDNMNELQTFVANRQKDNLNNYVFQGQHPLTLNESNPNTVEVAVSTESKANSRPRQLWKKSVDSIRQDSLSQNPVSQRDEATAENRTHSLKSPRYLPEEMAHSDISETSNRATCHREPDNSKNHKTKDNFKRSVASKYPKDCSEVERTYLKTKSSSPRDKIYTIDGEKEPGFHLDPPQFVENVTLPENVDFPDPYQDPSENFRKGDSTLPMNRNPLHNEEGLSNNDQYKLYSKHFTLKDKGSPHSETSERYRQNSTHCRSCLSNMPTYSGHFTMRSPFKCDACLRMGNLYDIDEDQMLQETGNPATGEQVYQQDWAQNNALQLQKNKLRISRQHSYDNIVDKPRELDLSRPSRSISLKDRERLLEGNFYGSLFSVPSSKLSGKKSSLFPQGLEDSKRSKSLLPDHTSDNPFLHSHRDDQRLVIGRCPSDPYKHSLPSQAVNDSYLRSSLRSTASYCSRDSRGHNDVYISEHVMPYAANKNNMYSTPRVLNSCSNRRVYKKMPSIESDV
Method: NMDA potentiation was assessed using either whole cell patch clamp of mammalian cells which expressed NMDA receptors, or using two-electrode voltage clamp (TEVC) of Xenopus Laevis oocytes expressing NMDA receptors.
NMDA/Glycine peak and steady-state currents were recorded from stably transfected cells expressing the NMDA receptor and the modulatory effects of the test items on these currents were investigated.
Cells were stably transfected with human GRIN1 (variant NR1-3). These cells were transiently transfected (Lipofectamine™) with GRIN2A cDNA and CD8 (pLeu) antigene cDNA. About 24-72 hours following transfection 1 μl Dynabeads M-45 CD8 was added to identify successfully transfected cells (Jurman et al., Biotechniques (1994) 17:876-881). Cells were passaged to a confluence of 50-80%. Cells were seeded onto Poly-L-Lysine coated cover slips covered with culture complete medium in a 35 mm culture dish. Confluent clusters of cells are electrically coupled (Pritchett et al., Science (1988), 242:1306-8). Because responses in distant cells are not adequately voltage clamped and because of uncertainties about the extent of coupling (Verdoorn et al., Neuron (1990), 4:919-28), cells were cultivated at a density that enables single cells (without visible connections to neighboring cells) to be measured. Cells were incubated at 37° C. in a humidified atmosphere with 5% CO2 (rel. humidity about 95%). The cells were continuously maintained in and passaged in sterile culture flasks containing a 1:1 mixture of Dulbecco's modified eagle medium and nutrient mixture F-12 (D-MEM/F-12 1×, liquid, with L-Glutamine) supplemented with 9% fetal bovine serum and 0.9% Penicillin/Streptomycin solution. The complete medium was supplemented with 3.0 μg/ml Puromycin.
Whole cell currents were measured with HEKA EPC-10 amplifiers using PatchMaster software. Cell culture dishes for recordings were placed on the dish holder of the microscope and continuously perfused (1 ml/min) with “bath solution” (NaCl 137 mM, KCl 4 mM, CaCl2 1.8 mM, MgCl2 1 mM, HEPES 10 mM, D-Glucose 10 mM, pH (NaOH) 7.4). All solutions applied to cells including the pipette solution were maintained at room temperature (19° C.-30° C.). After formation of a Gigaohm seal between the patch electrodes and transfected individual HEK 293 cells (pipette resistance range: 2.5 MΩ-6.0 MΩ; seal resistance range: >1 GQ) the cell membrane across the pipette tip was ruptured to assure electrical access to the cell interior (whole-cell patch-configuration). At this point the bath solution is switched to “NMDA bath solution” (NaCl 137 mM, KCl 4 mM, CaCl2 2.8 mM, HEPES 10 mM, D-Glucose 10 mM, Cremophore 0.02%, pH (NaOH) 7.4). NMDA inward currents were measured upon application of 30 μM NMDA (and 5.0 μM Glycine) to patch-clamped cells (2 applications) for 5 s. The cells were voltage clamped at a holding potential of −80 mV. For the analysis of test articles, NMDA receptors were stimulated by 30 μM NMDA and 5.0 μM Glycine after sequential pre-incubation of increasing concentrations of the test article. Pre-incubation duration was 30 s. Stimulation duration was 5 s Test articles were dissolved in DMSO to form stock solutions of 0.1 mM and 1 mM. Test articles were diluted to 0.1 μM and 1 μM in “NMDA bath solution”. Both concentrations of test articles were tested on each cell. The same concentration was applied at least three times or until the steady state current amplitude was reached. Every day one cell was tested with 50 μM PREGS (positive control) using the same application protocol to test whether cells were successfully transfected with NMDA receptors.

[2] = biological target: NMDA (NR1a/NR2A) (Homo sapiens, UniProt Q05586+Q12879); details: cited from earlier work
NMDA (NR1a/NR2A), sequence (Q12879 23-1464, other chains not shown): as above

Structure (SMILES) | activation at 0.1 µM [1] [%] | activation at 1 µM [1] [%] | also measured
C[C@H](CCC(C)(O)C1CC1)[C@H]1CC[C@H]2[C@@H]3CC=C4C[C@@](C)(O)CC[C@]4(C)[C@H]3CC[C@]12C (some centres unmarked) [Compound 9-2] | 150 to 250 | 150 to 250 | –
C[C@H](CC[C@@H](O)C(F)(F)F)[C@H]1CC[C@H]2[C@@H]3CC=C4C[C@@](C)(O)CC[C@]4(C)[C@H]3CC[C@]12C [Compound 1-17] | 150 to 250 | 150 to 250 | –
CC(C)C(C)(O)CC[C@@H](C)[C@H]1CC[C@H]2[C@@H]3CC[C@H]4C[C@@](C)(O)CC[C@]4(C)[C@H]3CC[C@]12C (some centres unmarked) [Compound 8-3] | 75 to 150 | > 250 | –
CCCC(C)(O)CC[C@@H](C)[C@H]1CC[C@H]2[C@@H]3CC[C@H]4C[C@@](C)(O)CC[C@]4(C)[C@H]3CC[C@]12C (some centres unmarked) [Compound 5-3] | 10 to 75 | 75 to 150 | –
CCCC(C)(O)CC[C@@H](C)[C@H]1CC[C@H]2[C@@H]3CC=C4C[C@@](C)(O)CC[C@]4(C)[C@H]3CC[C@]12C (some centres unmarked) [Compound 5-2] | 75 to 150 | 150 to 250 | –
CC(C)C(C)(O)CC[C@@H](C)[C@H]1CC[C@H]2[C@@H]3CC=C4C[C@@](C)(O)CC[C@]4(C)[C@H]3CC[C@]12C (some centres unmarked) [Compound 8-2] | 75 to 150 | 150 to 250 | –
CCC(C)(O)CC[C@@H](C)[C@H]1CC[C@H]2[C@@H]3CC[C@H]4C[C@@](C)(O)CC[C@]4(C)[C@H]3CC[C@]12C (some centres unmarked) [Compound 4-7] | – | – | NMDA 1a2A (%) Potentiation 0.1 uM [1]: B (“B” indicates potentiation of >75% to 150%); NMDA 1a2A (%) Potentiation 1 uM [1]: C (“C” indicates potentiation of >150 to 250%)
CCC(C)(O)CC[C@@H](C)[C@H]1CC[C@H]2[C@@H]3CC[C@H]4C[C@@](C)(O)CC[C@]4(C)[C@H]3CC[C@]12C (some centres unmarked) [Comparison compound 5, reference compound] | – | – | NMDA 1a2A (%) Potentiation 0.1 uM [1]: A (“A” indicates 10-75% potentiation); NMDA 1a2A (%) Potentiation 1 uM [1]: A (“A” indicates 10-75% potentiation)
C[C@H](CCC(C)(C)O)[C@H]1CC[C@H]2[C@@H]3CC=C4C[C@@H](O)CC[C@]4(C)[C@H]3CC[C@]12C (stereo in doubt) [Org-1, reference compound] | 10 to 75 | 150 to 250 | modulation of NMDA (NR1a/NR2A) [2]: positive modulator; selectivity NMDA over GABAA [2]: selectively modulate NMDA over GABAA
C=CCC(C)(O)CC[C@@H](C)[C@H]1CC[C@H]2[C@@H]3CC=C4C[C@@](C)(O)CC[C@]4(C)[C@H]3CC[C@]12C (some centres unmarked) [Compound 6-2] | 75 to 150 | 150 to 250 | –
C[C@H](CCC(O)C(F)(F)F)[C@H]1CC[C@H]2[C@@H]3CC=C4C[C@@](C)(O)CC[C@]4(C)[C@H]3CC[C@]12C (some centres unmarked) [Compound 1-11] | 150 to 250 | 150 to 250 | –
C[C@H](CC[C@H](O)C(F)(F)F)[C@H]1CC[C@H]2[C@@H]3CC=C4C[C@@](C)(O)CC[C@]4(C)[C@H]3CC[C@]12C [Compound 1-15] | 75 to 150 | 150 to 250 | –
CC(C)(O)CCC[C@H]1CC[C@H]2[C@@H]3CC[C@H]4C[C@@](C)(O)CC[C@]4(C)[C@H]3CC[C@]12C [Comparison compound 4, reference compound] | 10 to 75 | 75 to 150 | loss of NMDA potentiation compared to Comparison Compound 3 ([1]; measured at 0.1 μM concentration): five fold
CC(CCC(C)(C)O)[C@H]1CC[C@H]2[C@@H]3CC[C@H]4C[C@@](C)(O)CC[C@]4(C)[C@H]3CC[C@]12C (some centres unmarked) [Comparison compound 3, reference compound] | 75 to 150 | 150 to 250 | –
C[C@H](CCC(O)C(F)(F)F)[C@H]1CC[C@H]2[C@@H]3CC[C@H]4C[C@@](C)(O)CC[C@]4(C)[C@H]3CC[C@]12C (some centres unmarked) [Compound 1-12] | 10 to 75 | 75 to 150 | –
CC(CCC(C)(C)O)[C@H]1CC[C@H]2[C@@H]3CC=C4C[C@@](C)(O)CC[C@]4(C)[C@H]3CC[C@]12C (some centres unmarked) [Comparison compound 2, reference compound] | 75 to 150 | > 250 | –
CC(O)CCC(C)[C@H]1CC[C@H]2[C@@H]3CC=C4C[C@@H](O)CC[C@]4(C)[C@H]3CC[C@]12C (some centres unmarked) [Comparison compound 1, reference compound] | 10 to 75 | 75 to 150 | –
CCC(C)(O)CC[C@@H](C)[C@H]1CC[C@H]2[C@@H]3CC=C4C[C@@](C)(O)CC[C@]4(C)[C@H]3CC[C@]12C (some centres unmarked) [Compound 4-6] | 150 to 250 | 150 to 250 | –
CCCCC(C)(O)CC[C@@H](C)[C@H]1CC[C@H]2[C@@H]3CC=C4C[C@@](C)(O)CC[C@]4(C)[C@H]3CC[C@]12C (some centres unmarked) [Compound 7-2] | 10 to 75 | 75 to 150 | –
